Consider 1 compound from patent US20060067913A1, “HCV therapy” (priority 2003, published 2006).

How the values of data set [1] were obtained: In this Example, Human Ezrin Peptide therapy comprised oral administration of a 2 mg/2 ml aqueous solution of HEP1 to HCV patients who were also infected with HIV. The patients were treated twice a day for 10 days followed by once a day for 20 days in the absence of any other anti-HIV or anti-HCV therapy. Blood samples from patients were analysed before treatment and 30 days after the end of the 30 day treatment period.

For data set [2] the following is noted: children; cited from earlier work.

Structures are written as SMILES. Where a SMILES comes first, the peptide text is derived from it.

On to `CC(C)[C@H](NC(=O)[C@@H](NC(=O)[C@H](CCC(=O)O)NC(=O)[C@H](CCCNC(=N)N)NC(=O)[C@H](CCCNC(=N)N)NC(=O)[C@H](CCCCN)NC(=O)[C@H](CCCCN)NC(=O)[C@H](CCC(=O)O)NC(=O)[C@@H](N)[C@@H](C)O)[C@@H](C)O)C(=O)N[C@@H](CCC(=O)O)C(=O)N[C@@H](CCCNC(=N)N)C(=O)N[C@@H](CCC(=O)O)C(=O)N[C@@H](CCCCN)C(=O)N[C@@H](CCC(=O)O)C(=O)O` [HEP1] (H-TEKKRRETVEREKE-OH), for which, in data set [1] (HIV+HCV infected patients), the CD4/CD8 index result was “improved”, the “average increase of CD4 cells” value is on record as 70 cells per microlitre and the “patients with increased CD4 cells” value is 18 of 19. Further, in data set [1] (during treatment with HEP1), the “side effects or adverse events” value was “No side effects or adverse events were observed”. Also, the “side-effects or adverse reactions” value in data set [2] is on record as “No side-effects or adverse reactions”.
